We go through 23 compounds from patent publication US10723733B2, “Hepatitis B antiviral agents” (Enanta Pharmaceuticals, Inc., priority 2017, dated 2020).

The first test deals with HBV. The test is described as follows: HepAD38 antiviral assay: reduction of viral product accumulation (virion DNA by qPCR, HBsAg/HBeAg by ELISA). The test is classed as cell-based. To be noted: Hepatitis B virus, 120 h; HepAD38 cells; 50% reduction of viral product accumulation vs no drug controls; five days after compound addition; class symbols. The protocol:
Methods: HepAD38 cells are maintained as previously reported (Ladner et al, Antimicrob. Agents Chemother. 1997, […], 1715). Briefly, cells are passaged upon attaining confluency in DMEM/F12 media in the presence of 10% FBS, Penn/Strep, 250 μg/mL G418, and 1 μg/ml tetracycline. Novel compounds are screened by first washing cells three times with PBS to remove tetracycline, and plating in 96 well plates at 35,000 cells/well. Compounds dissolved in DMSO are then diluted 1:200 into wells containing cells. Five days after compound addition, material is harvested for analysis. For an extended 8 day analysis, cells are plated and treated as described above, but media and compound are refreshed on d2 and d5 post initial treatment.
On harvest day, virion DNA is obtained by lysing with Sidestep Lysis and Stabilization Buffer and then quantified via quantitative real time PCR. Commercially available ELISA kits are used to quantitate the viral proteins HBsAg (Alpco) or HbeAg (US Biological) by following the manufacturer's recommended protocol after diluting samples to match the linear range of their respective assays. Irrespective of readout, compound concentrations that reduce viral product accumulation in the cell lysates or supernatants by 50% relative to no drug controls (EC50) are reported; EC50 ranges are as follows: A<0.1 μM; B 0.1-1 μM; C>1 μM.
On the technique in general: Quantitative PCR measures a nucleic acid by following its amplification.
For orientation: EC50 means the midpoint of the concentration-response curve. On to `O=S(=O)(N[C@]1(CO)CC2=C(c3ccn(C(F)F)n3)[C@H](c3ccc(F)cc3Cl)N=C(c3nccs3)N2C1)C1CC1` [Example 70], for which the EC50 lay in the range of 100 to 1000 nM.

Regarding `COC(=O)N[C@@]1(CO)CC2=C(c3ccn(C(F)F)n3)[C@H](c3ccc(F)cc3Cl)N=C(c3nccs3)N2C1` [Example 84], the concentration for a half-maximal effect (EC50) was under 100 nM. Still for that read-out and setting: to `O=C[C@@]1(CC2=C(c3ccn(C(F)F)n3)[C@H](c3ccc(F)cc3Cl)N=C(c3nccs3)N2)COC(=O)N1` [Example 91] belongs under 100 nM; to `COC(=O)[C@]1(CC2=C(c3ccn(C(F)F)n3)[C@H](c3ccc(F)cc3Cl)N=C(c3nccs3)N2)COC(=O)N1` [Example 93], under 100 nM; to `O=C[C@]1(CC2=C(c3ccn(C(F)F)n3)[C@H](c3ccc(F)cc3Cl)N=C(c3nccs3)N2)COC(=O)N1` [Example 95], under 100 nM.

Staying with this test, now noted: Hepatitis B virus, 120 h; HepAD38 cells; 50% reduction of viral product accumulation vs no drug controls; five days after compound addition; given as numeric bound.
As to `COC(=O)[C@@]1(NS(=O)(=O)C2CC2)CC2=C(c3ccn(C(F)F)n3)[C@H](c3ccc(F)cc3Cl)N=C(c3nccs3)N2C1` [Example 68], the EC50 is over 400 nM.

As to `CS(=O)(=O)N[C@]1(CO)CC2=C(c3ccn(C(F)F)n3)[C@H](c3ccc(F)cc3Cl)N=C(c3nccs3)N2C1` [Example 69], the EC50 is over 400 nM.

`CNC(=O)OC[C@@]1(NC(=O)OC)CC2=C(c3ccn(C(F)F)n3)[C@H](c3ccc(F)cc3Cl)N=C(c3nccs3)N2C1` [Example 71] yielded an EC50 of over 400 nM. The same measure, in the same setting: the same measure for `COC(=O)N[C@]1(C(=O)O)CC2=C(c3ccn(C(F)F)n3)[C@H](c3ccc(F)cc3Cl)N=C(c3nccs3)N2C1` [Example 73]: over 400 nM; for `COC(=O)CNC(=O)[C@@]1(NC(=O)OC)CC2=C(c3ccn(C(F)F)n3)[C@H](c3ccc(F)cc3Cl)N=C(c3nccs3)N2C1` [Example 74]: over 400 nM. The same measure, in the same setting: to `COC(=O)[C@]1(N)CC2=C(c3ccn(C(F)F)n3)[C@H](c3ccc(F)cc3Cl)N=C(c3nccs3)N2C1` [Example 75] belongs over 400 nM.

Compound `COC(=O)N[C@]1(COC(=O)NCC(=O)O)CC2=C(c3ccn(C(F)F)n3)[C@H](c3ccc(F)cc3Cl)N=C(c3nccs3)N2C1` [Example 77] had an EC50 of over 400 nM. Still for that read-out and setting: the same measure for `COC(=O)CCNC(=O)OC[C@@]1(NC(=O)OC)CC2=C(c3ccn(C(F)F)n3)[C@H](c3ccc(F)cc3Cl)N=C(c3nccs3)N2C1` [Example 78]: over 400 nM; for `COC(=O)N[C@]1(COC(=O)NCCC(=O)O)CC2=C(c3ccn(C(F)F)n3)[C@H](c3ccc(F)cc3Cl)N=C(c3nccs3)N2C1` [Example 79]: over 400 nM. In turn, `COC(=O)N[C@]1(C(=O)NCCC(=O)OC(C)(C)C)CC2=C(c3ccn(C(F)F)n3)[C@H](c3ccc(F)cc3Cl)N=C(c3nccs3)N2C1` [Example 80] returned a concentration for a half-maximal effect (EC50) of over 400 nM.

`COC(=O)N[C@]1(C(=O)NCCC(=O)O)CC2=C(c3ccn(C(F)F)n3)[C@H](c3ccc(F)cc3Cl)N=C(c3nccs3)N2C1` [Example 81]: the EC50 is over 400 nM. The same measure, in the same setting: the same measure for `COC(=O)N[C@@]1(C(=O)OC)CC2=C(c3ccn(C(F)F)n3)[C@H](c3ccc(F)cc3Cl)N=C(c3nccs3)N2C1` [Example 82]: over 400 nM; for `COC(=O)N[C@]1(COC(C)=O)CC2=C(c3ccn(C(F)F)n3)[C@H](c3ccc(F)cc3Cl)N=C(c3nccs3)N2C1` [Example 83]: over 400 nM; for `COC[C@@]1(NC(=O)OC)CC2=C(c3ccn(C(F)F)n3)[C@H](c3ccc(F)cc3Cl)N=C(c3nccs3)N2C1` [Example 85]: over 400 nM. As for `COC(=O)N[C@@]1(C(C)O)CC2=C(c3ccn(C(F)F)n3)[C@H](c3ccc(F)cc3Cl)N=C(c3nccs3)N2C1` (some centres unmarked) [Example 87], the concentration for a half-maximal effect (EC50) is over 400 nM. Same read-out and setting: to `COC(=O)[C@@]1(CC2=C(c3ccn(C(F)F)n3)[C@H](c3ccc(F)cc3Cl)N=C(c3nccs3)N2)COC(=O)N1` [Example 89] belongs over 400 nM; to `O=C1N[C@](CO)(CC2=C(c3ccn(C(F)F)n3)[C@H](c3ccc(F)cc3Cl)N=C(c3nccs3)N2)CO1` [Example 90], over 400 nM.

`COC(=O)[C@@](N)(CO)CC1=C(c2ccn(C(F)F)n2)[C@H](c2ccc(F)cc2Cl)N=C(c2nccs2)N1` [Example 92] yielded a concentration giving a half-maximal response (EC50) of over 400 nM.
